Data taken from patent publication US9120774B2 (University of Kansas, priority 2009, dated 2015).
Where two headings read alike, the source gives them in different places.

Columns and labels:
Assay type in all cases: cell-based
[1] = system: MM2 (metastatic mammary tumor cancer cells); assay: Anti-proliferation activity against MM2 cells (MTS/PMS)
Experimental: (§1) Cells were maintained in a 1:1 mixture of Advanced DMEM/F12 (Gibco) supplemented with non-essential amino acids, L-glutamine (2 mM), streptomycin (500 μg/mL), penicillin (100 units/mL), and 10% FBS. Cells were grown to confluence in a humidified atmosphere (37° C., 5% CO2), seeded (2000/well, 100 μL) in 96-well plates, and allowed to attach overnight. Compound or GDA at varying concentrations in DMSO (1% DMSO final concentration) was added, and cells were returned to the incubator for 72 hours. At 72 hours, the number of viable cells was determined using an MTS/PMS cell proliferation kit (Promega) per the manufacturer's instructions. Cells incubated in 1% DMSO were used at 100% proliferation, and values were adjusted accordingly. IC50 values were calculated from separate experiments performed in triplicate using GraphPad Prism.

[2] = system: A549 (human alveolar basal epithelial cells); assay: Anti-proliferation activity against A549 cells (MTS/PMS); details: Homo sapiens, A549
Experimental: as §1

[3] = system: SkBr3 (Her2 overexpressing breast cancer cells); assay: Anti-proliferation activity against SkBr3 cells (MTS/PMS)
In short: (§2)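 Cells seeded at 2000/well, attached overnight, then exposed to compound at varying concentrations (1% DMSO final) for 72 hours at 37° C. Viable cells read by MTS/PMS, normalised to 1% DMSO as 100% proliferation. IC50 from separate triplicate experiments.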

[4] = system: LN3 (metastatic human prostate cancer cells); assay: Anti-proliferation activity against LN3 cells (MTS/PMS)
Experimental: as §1

[5] = system: MCF-7 (estrogen receptor positive breast cancer cells); assay: Anti-proliferation activity against MCF-7 cells (MTS/PMS)
In short: as §2

[6] = Table 20, indole-2-carboxamide analogues with noviose replacements
[7] = Homo sapiens, SK-BR-3, Table 20, indole-2-carboxamide analogues with noviose replacements, read-out: IC50, SKBr3
[8] = Homo sapiens, Table 20, indole-2-carboxamide analogues with noviose replacements
[9] = Homo sapiens, MCF7, Table 20, indole-2-carboxamide analogues with noviose replacements, read-out: IC50, MCF-7
[10] = Table 9, azasugar analogues on 8-methyl coumarin, 72 hours
[11] = Table 9, azasugar analogues on 8-methyl coumarin, 72 hours, read-out: IC50 SKBr3
[12] = Table 9, azasugar analogues on 8-methyl coumarin, 72 hours, read-out: IC50 MCF-7
[13] = Table 12, aliphatic chain analogues, 72 hours
[14] = Homo sapiens, SK-BR-3, Table 12, aliphatic chain analogues, 72 hours, read-out: IC50 SKBr3
[15] = Homo sapiens, Table 12, aliphatic chain analogues, 72 hours
[16] = Homo sapiens, MCF7, Table 12, aliphatic chain analogues, 72 hours, read-out: IC50 MCF-7
[17] = Table 10, azasugar analogues on 6-methoxy coumarin, 72 hours

## COc1cc2cc(NC(=O)c3cc4ccccc4[nH]3)c(=O)oc2c(C)c1OC1CCCN(C)C1 (centres unmarked) [KU-366]
[1]; [6]
  IC50: 42.8 µM
[2]; [6]
  IC50: > 100 µM
[3]; [7]
  IC50: 0.15 ± 0.06 µM
[4]; [8]
  IC50: 14.8 µM
[5]; [9]
  IC50: 0.69 ± 0.12 µM

## COc1ccc(C(=O)Nc2cc3ccc(O[C@@H]4OC(C)(C)[C@H](OC)[C@@H](O)[C@H]4O)c(C)c3oc2=O)cc1-c1ccccc1 [28, KU-252]
[1]; [10]
  IC50: 2.99 µM
[3]; [11]
  IC50: 5.41 ± 0.8 µM
[4]; [10]
  IC50: 0.35 µM
[5]; [12]
  IC50: 29.4 ± 8.4 µM

## COc1cc2cc(NC(=O)c3cc4ccccc4[nH]3)c(=O)oc2c(C)c1OC1CCN(C)CC1 [KU-363]
[1]; [6]
  IC50: 0.87 ± 0.57 µM
[2]; [6]
  IC50: 0.59 µM
[3]; [7]
  IC50: 0.11 ± 0.01 µM
[4]; [8]
  IC50: 1.47 ± 0.66 µM
[5]; [9]
  IC50: 0.52 ± 0.05 µM

## COc1cccc(-c2cc(C(=O)Nc3cc4ccc(OCCN(C)C)c(OC)c4oc3=O)ccc2OC)c1 [KU-292]
[1]; [13]
  IC50: 6.2 µM
[2]; [13]
  IC50: 8.8 µM
[3]; [14]
  IC50: 1.77 ± 0.15 µM
[4]; [15]
  IC50: 5.22 µM
[5]; [16]
  IC50: 3.08 ± 0.12 µM

## COc1cccc(-c2cc(C(=O)Nc3cc4ccc(OCCCN(C)C)c(C)c4oc3=O)ccc2OC)c1 [KU-317]
[1]; [13]
  IC50: 12.8 µM
[2]; [13]
  IC50: 13.1 µM
[3]; [14]
  IC50: 0.6 ± 0.01 µM
[4]; [15]
  IC50: 37.5 µM
[5]; [16]
  IC50: 0.5 ± 0.04 µM

## Cc1c(OC2CCN(C)CC2)ccc2cc(NC(=O)c3cc4ccccc4[nH]3)c(=O)oc12 [KU-361]
[1]; [6]
  IC50: 11.4 ± 6.56 µM
[2]; [6]
  IC50: 3.91 µM
[3]; [7]
  IC50: 0.48 ± 0.11 µM
[4]; [8]
  IC50: 11.8 ± 0.68 µM
[5]; [9]
  IC50: 0.57 ± 0.04 µM

## COc1cccc(-c2cc(C(=O)Nc3cc4cc(OC)c(OC5CCCN(C)C5)c(C)c4oc3=O)ccc2OC)c1 (centres unmarked) [KU-281]
[1]; [17]
  IC50: 4.47 µM
[2]; [17]
  IC50: 3.19 µM
[3]; Homo sapiens, SK-BR-3, Table 10, azasugar analogues on 6-methoxy coumarin, 72 hours, read-out: IC50 SKBr3
  IC50: 1.49 ± 0.07 µM
[4]; Homo sapiens, Table 10, azasugar analogues on 6-methoxy coumarin, 72 hours
  IC50: 6.63 µM
[5]; Homo sapiens, MCF7, Table 10, azasugar analogues on 6-methoxy coumarin, 72 hours, read-out: IC50 MCF-7
  IC50: 1.41 ± 0.16 µM

## CO[C@@H]1[C@@H](O)[C@@H](O)[C@H](Oc2ccc3cc(NC(=O)C=Cc4ccccc4)c(=O)oc3c2C)OC1(C)C [25, KU-254]
[1]; [10]
  IC50: 3.42 µM
[3]; [11]
  IC50: > 50 µM
[4]; [10]
  IC50: 0.23 µM
[5]; [12]
  IC50: > 50 µM
